What was measured:
[1] = test system: target cells pulsed with peptide 1073; assay: In vivo killing assay using target cells pulsed with peptide 1073; conditions: 5 nmoles peptide with poly I:C, seven days after immunization
Method: C57BL6 mice were intravenously immunized intravenously with 5 nmoles of the indicated peptides in combination with 50 μg of the TLR3 ligand poly I:C. In some cases, the peptides were immunized in the presence of TLR2 (peptidoglycan), TLR4 (LPS or the EDA protein) or TLR9 (CpG) ligand. […] On the following day, the mice were sacrificed and the splenocytes were analyzed by flow cytometry to quantify the number of cells with high CFSE labeling with respect to the cells with low CFSE labeling. Thus, the percentage of cell lysis of the cells incubated with the cytotoxic […] peptide can be calculated in an experiment called in vivo killing.
(§1) Thus the peptides αMod-1073, γMod-1073 and δMod-1073 as well as the peptide p1073 alone were synthesized. HELD transgenic mice (which express the human HLA_A2 molecule) were immunized with 5 nmoles of the corresponding peptide in the presence of poly I:C. Seven days after immunization, ELISPOT and in vivo killing assays were carried out as described above using target cells pulsed with peptide 1073.

[2] = test system: IFNγ producing cells specific for peptide p1073 from hepatitis C NS3 protein; assay: ELISPOT of IFNγ producing cells specific for peptide 1073 after immunization; type: in vivo; conditions: 5 nmoles peptide with poly I:C, seven days after immunization
Method: For the analysis of IFNγ-producing cells specific for […] and induced in vivo by the immunizations, ELISPOT experiments were carried out using a BD-pharmingen kit (San Diego, Calif.) and according to the instructions of the manufacturer. Briefly, the plates (Multiscreen HTS, Millipore, Bedford, Mass.) incubated overnight with the anti-IFNγ antibody were blocked for 2 hours with HL-1 medium (Biowhittaker, Verviers, Belgium) containing 10% horse serum. Thus, 5×10^5 splenocytes were incubated in triplicate in the absence or in the presence of the antigens at 37° C. and 5% CO2. On the following day, the plates were washed with PBS and incubated with biotinylated anti-IFNγ antibody (2 mg/ml). After two hours, the plates were washed and incubated with a 1/100 dilution of streptavidin-peroxidase. One hour later, the wells were washed and developed using the AEC substrate set (BD-Pharmingen). The colorimetric reaction was stopped with distilled water and the number of spots was quantified using an ELISPOT automatic reader (CTL, Aalen, Germany).
as §1

[3] = test system: dendritic cells derived from bone marrow; assay: Expression of messenger RNA for IL-12 p40 and TNFα in dendritic cells (real-time PCR); type: cell-based, mouse; conditions: 50 μM peptide, 16 hours, versus culture medium alone, p<0.05
Method: (§2) Dendritic cells were grown from bone marrow cells. […] The remaining cells grew in 12 culture plates in complete medium with 10^6 cells/ml supplemented with 20 ng/ml of mGM-CSF and 20 ng/ml of mIL-4 (both from Peprotech; London, GB). Every 2 days the medium was substituted with fresh medium containing cytokines. On day 7, non-adherent dendritic cells were collected, and cultured in the presence or absence of 50 μM of modulin peptides or of 1 μg/ml of LPS (Sigma) and incubated for 48 hours at 37° C. and 5% CO2. After this period, the cells were isolated and incubated with anti IAb, CD54 and CD86 antibodies (Pharmingen). In parallel experiments, the dendritic cells were incubated with the indicated stimuli for 16 hours, after which the expression of the messenger RNA for the p40 molecules of IL-12 and of TNF-α was analyzed.
The total RNA of dendritic cells incubated for 16 hours with the different stimuli indicated above were extracted using the Nucleic Acid Purification Lysis Solution (Applied BioSystems, Foster City, Calif.) and the ABI PRISM 6100 Nucleic Acid PrepStation (Applied BioSystems) semiautomatic system.

[4] = test system: dendritic cells derived from bone marrow; assay: Upregulation of maturation markers on dendritic cells (flow cytometry); type: cell-based, mouse; conditions: 50 μM peptide, 48 hours
Method: as §2
Expression of DC maturation markers was measured by flow cytometry. DC were harvested and pre-incubated with a rat anti-CD16/32 mAb (2.4G2 clone, BD Pharmingen) for 15 min, to block non-specific binding of primary antibodies. After this initial incubation, cells were stained with the primary antibodies at 4° C. for 15 min, washed and acquired on FACSscan cytometer (BD Biosciences, San Diego, Calif.) and analyzed using Cell Quest software (BD Biosciences).

[5] = test system: TC-1 tumor cells (expressing the E7 protein of the HPV-16 virus); assay: Treatment of mice carrying TC1 subcutaneous tumors; type: in vivo, C57B/6 mice; conditions: TC1 tumors of 8 mm diameter, i.v. peptide plus 50 μg/ml poly I:C, second immunization seven days later
Method: The C57B/6 mice were subcutaneously injected with 5×10^5 TC-1 tumor cells (expressing the E7 protein of the HPV-16 virus). After 25 days, when the tumor reaches a diameter of 8 mm, the mice are intravenously treated with PBS (B), with peptide E7(49-57) plus 50 μg/ml poly I:C(C), or with peptide αMod-E7(49-57) plus 50 μg/ml poly I:C (D). Seven days later, the mice received a second immunization of the same immunogens. The tumor size, presented as the average of two perpendicular diameters, was measured at regular intervals using a gauge. The number of tumor-free mice relative to the total number of animals per group is included for each treatment.

EG7OVA tumor cells [6] = assay: Treatment of mice bearing established EG7OVA tumors; type: in vivo, C57BL/6 mice; conditions: EG7OVA tumors of 5 mm diameter at treatment, peptide plus poly I:C, p<0.05
Method: (§3) Protection against the challenge with EG7 tumor cells expressing the OVA protein C57BL6 mice were subcutaneously immunized with 5 nmol of the indicated peptides in combination with poly I:C. Seven days after the immunization, the mice were subcutaneously injected with 5×10^5 or with 5×10^7 EG7OVA cells. In some experiments, mice were first challenged s.c with 5×10^5 cells and when tumors reached 5 mm in diameter they were treated with the indicated peptide. The tumor growth was controlled with a gage. Mice were sacrificed when the tumor reached a volume greater than 4 cm^3. Kaplan-Meier plot of mice survival for each immunogen is depicted.

[7] = test system: splenocytes pulsed with the SIINFEKL peptide; assay: In vivo killing assay against SIINFEKL-pulsed splenocytes after immunization; parameters: species or system C57BL/6 mice; conditions: 5 nmoles peptide plus 50 μg poly I:C
Method: C57BL6 mice were intravenously immunized intravenously with 5 nmoles of the indicated peptides in combination with 50 μg of the TLR3 ligand poly I:C. In some cases, the peptides were immunized in the presence of TLR2 (peptidoglycan), TLR4 (LPS or the EDA protein) or TLR9 (CpG) ligand. […] On the following day, the mice were sacrificed and the splenocytes were analyzed by flow cytometry to quantify the number of cells with high CFSE labeling with respect to the cells with low CFSE labeling. Thus, the percentage of cell lysis of the cells incubated with the cytotoxic SIINFEKL peptide can be calculated in an experiment called in vivo killing.
C57BL6 wild type mice and knockout mice were immunized for TLR2 with the aim of studying the dependence on TLR2 in the immunostimulating capacity of modulin-derived peptides. Thus, different mice were injected with 5 nmoles of the indicated peptides or with PBS in combination with 50 μg of the TLR3 ligand poly I:C. […] On the following day, the mice were sacrificed and the splenocytes were analyzed by flow cytometry to quantify the number of cells with high CFSE labeling with respect to the cells with low CFSE labeling in the same manner as in Example 3.

mouse splenocytes = assay: Binding of CFSE labeled peptides to glutaraldehyde-fixed splenocytes (flow cytometry); type: cell-based; conditions: unlabeled competitor 100 μM, 20 μM CFSE γMod-SIINFEKL
Method: Binding assays were carried out using either splenocytes (FIG. 1, panels A B, D, E and G) or bone marrow derived dendritic cells (FIG. 1, panels C and F). The cells were fixed by means of an incubation with a 0.4% glutaraldehyde solution for 15 minutes at 4° C. 5×10^5 fixed cells were incubated in the presence of 20 μM CFSE αMod-[sequence] (FIG. 1, panels A, B and C), or CFSE γMod-[sequence] (FIG. 1, panels D, E, F and G). In some assays, and to study the specificity of CFSE labeled peptide binding, these incubations were carried out in the presence or absence of the unlabeled peptides αMod-[sequence], γMod-[sequence] or [sequence] (100 μM) (panels B and E). Also, we carried out binding assays using the CFSE labeled peptide CFSE-OVA (235-264) as a negative control (FIG. 1, panels A, C, D and F). After 30 minutes of incubation at 4° C., two washings with PBS were carried out and the performed labeling was analyzed by flow cytometry. In some experiments (FIG. 1G), double staining was carried out using anti-CD4, CD8, CD11c, CD19, F480 or GR1(CD117) antibodies labeled with phycoerythrin (Pharmingen) together with the CFSE-γMod-[sequence] peptide. In these cases, the labeling with the specific antibodies was carried out before fixing the cells with glutaraldehyde.

EG7OVA tumor cells [8] = assay: Protection against the challenge with EG7OVA tumor cells after immunization; type: in vivo, C57BL/6 mice; conditions: 5 nmoles peptide with poly I:C
Method: as §3, with “Seven days after the immunization, the mice were subcutaneously injected with 5×10^5 or with 5×10^7 EG7OVA cells.” left out

[9] = test system: IFNγ-producing cells in response to the SIINFEKL peptide; assay: ELISPOT of IFNγ-producing cells specific for SIINFEKL after immunization; type: in vivo, C57BL/6 mice; conditions: 5 nmoles peptide plus 50 μg poly I:C
Method: C57BL6 mice were intravenously immunized intravenously with 5 nmoles of the indicated peptides in combination with 50 μg of the TLR3 ligand poly I:C. In some cases, the peptides were immunized in the presence of TLR2 (peptidoglycan), TLR4 (LPS or the EDA protein) or TLR9 (CpG) ligand. Seven days after the immunization, the mice were intravenously injected with a mixture of 5×10^6 splenocytes, half of which had been previously labeled with a dose of 0.25 μM C and the other half with 2.5 uM CFSE and the SIINFEKL peptide (10 μg/ml). On the following day, the mice were sacrificed and the splenocytes were analyzed by flow cytometry to quantify the number of cells with high CFSE labeling with respect to the cells with low CFSE labeling. Thus, the percentage of cell lysis of the cells incubated with the cytotoxic SIINFEKL peptide can be calculated in an experiment called in vivo killing.
For the analysis of IFNγ-producing cells specific for SIINFEKL and induced in vivo by the immunizations, ELISPOT experiments were carried out using a BD-pharmingen kit (San Diego, Calif.) and according to the instructions of the manufacturer. Briefly, the plates (Multiscreen HTS, Millipore, Bedford, Mass.) incubated overnight with the anti-IFNγ antibody were blocked for 2 hours with HL-1 medium (Biowhittaker, Verviers, Belgium) containing 10% horse serum. Thus, 5×10^5 splenocytes were incubated in triplicate in the absence or in the presence of the antigens at 37° C. and 5% CO2. On the following day, the plates were washed with PBS and incubated with biotinylated anti-IFNγ antibody (2 mg/ml). After two hours, the plates were washed and incubated with a 1/100 dilution of streptavidin-peroxidase. One hour later, the wells were washed and developed using the AEC substrate set (BD-Pharmingen). The colorimetric reaction was stopped with distilled water and the number of spots was quantified using an ELISPOT automatic reader (CTL, Aalen, Germany).
For the analysis of IFNγ-producing cells in the presence of SIINFEKL and induced in vivo by the immunizations, ELISPOT experiments were carried out using a BD-pharmingen kit (San Diego, Calif.) and according to the instructions of the manufacturer, in the same manner as in Example 3.

[10] = test system: T cells from OT-1 transgenic mice; assay: Antigen presentation assay: proliferation of OT-1 T cells (tritiated thymidine); type: cell-based, mouse; conditions: dendritic cells incubated with 10 μM peptide
Method: Dendritic cells derived from bone marrow were cultured in the presence or absence of 10 μM of the indicated peptides (FIG. 3). Forty hours later, the cells were washed and distributed in 96-well plates at different concentrations and incubated in the presence of 10^5 T cells/well obtained from OT-1 transgenic mice (which express a specific T receptor for the SIINFEKL peptide of ovalbumin. Seventy-two hours later, tritiated thymidine was added to the cultures and six hours later the cells were harvested and the incorporated thymidine was analyzed in a scintillation counter (Topcount Packard).

Substance: CVNGVCWTV [Peptide 1073, reference compound]
- CTL activity against peptide 1073 (in vivo killing) [1]: not found
- IFNγ producing cells specific for peptide 1073 (ELISPOT) [2]: not found

Substance: MAADIISTIGDLVKWIIDTVNKFKK [γMod]
- expression of messenger RNA for IL-12 (p40) [3]: capable of increasing the expression
- expression of messenger RNA for TNF-alpha [3]: capable of increasing the expression
- expression of CD54 on dendritic cells [4]: promotes the expression
- expression of the IAb molecule on dendritic cells [4]: promotes the expression

Substance: MAADIISTIGDLVKWIIDTVNKFKKCVNGVCWTV [γMod-1073]
- CTL activity against peptide 1073 (in vivo killing) [1]: high levels of CTL activity
- IFNγ producing cells specific for peptide 1073 (ELISPOT) [2]: high numbers of IFNγ producing cells

Substance: MADVIAKIVEIVKGLIDQFTQK (Staphylococcus epidermidis RP62A) [αMod]
- expression of messenger RNA for IL-12 (p40) [3]: capable of increasing the expression
- expression of messenger RNA for TNF-alpha [3]: capable of increasing the expression
- expression of CD54 on dendritic cells [4]: activates the expression
- expression of CD86 on dendritic cells [4]: activates the expression
- expression of the IAb molecule on dendritic cells [4]: activates the expression

Substance: MADVIAKIVEIVKGLIDQFTQKCVNGVCWTV [αMod-1073]
- CTL activity against peptide 1073 (in vivo killing) [1]: strong T cell immune responses
- IFNγ producing cells specific for peptide 1073 (ELISPOT) [2]: strong T cell immune responses

Substance: MSIVSTIIEVVKTIVDIVKKFKKCVNGVCWTV [δMod-1073]
- CTL activity against peptide 1073 (in vivo killing) [1]: high levels of CTL activity
- IFNγ producing cells specific for peptide 1073 (ELISPOT) [2]: high numbers of IFNγ producing cells

Substance: RAHYNIVTF [E7(49-57), reference compound]
- number of tumor-free (cured) mice relative to the total number of mice [5]: 4 of 11

Substance: SIINFEKL [reference compound]
- mice rejecting the established tumor (EG7OVA tumor cells [6]): 0%
- cells with lysis capacity against SIINFEKL (in vivo killing) ([7]; 60 days after immunization): not capable of inducing
- specific cytotoxic activity against SIINFEKL (in vivo killing) ([7]; seven days after immunization): not capable of activating these responses
- reduction of the bright fluorescence of CFSE γMod-SIINFEKL on splenocytes by unlabeled peptide (mouse splenocytes): did not affect this signal
- protection from tumor growth after EG7OVA challenge (EG7OVA tumor cells [8]; 5×10^5 EG7OVA cells s.c. seven days after immunization (FIG. 5A)): developed tumors
- protection from tumor growth after EG7OVA challenge (EG7OVA tumor cells [8]; 7×10^5 EG7OVA cells s.c. seven days after immunization (FIG. 5B)): developed tumors
- IFNγ-producing cells in response to SIINFEKL (ELISPOT) ([9]; 60 days after immunization): not capable of inducing
- IFNγ-producing cells in response to SIINFEKL (ELISPOT) ([9]; seven days after immunization): not capable of activating these responses
- proliferation of OT-1 T lymphocytes stimulated by peptide-incubated dendritic cells [10]: proliferate better

Substance: polyinosinic-polycytidylic acid [poly I:C]
- mice rejecting the established tumor (EG7OVA tumor cells [6]): 0%

Reference: patent US20110268757A1, “USE OF PHENOL-SOLUBLE MODULINS FOR VACCINE DEVELOPMENT” (INSTITUT PASTEUR, priority 2008, published 2011)
